US7927829B2, “Method for in vitro phosphorylation of trap of Staphylococcus aureus and a method for screening the inhibitor of the trap phosphorylation” (priority 2007, dated 2011)

Biological target: TRAP protein (Staphylococcus aureus, UniProt Q6GFM2)
Assay type: biochemical
Set-up: 6xHis (C); made in house; host or cells: Escherichia coli
Details: for TRAP phosphorylation induced by oxidative and reductive agents: same procedure as Example 3, FIG. 5; for in vitro phosphorylation of TRAP protein by using metal ions: 20 μM or 200 μM metal ions, 37° C. 30 minutes, FIG. 2; for metal ion concentration above which TRAP protein is maximally phosphorylated: various ion concentrations, other conditions as Example 3, FIG. 3
Description: The TRAP protein obtained in Example 2 was prepared with each tube according to following compositions of Table 2.
The protein sample prepared above was reacted at 37° C. for 30 minutes, then mixed with 2× loading dye 10 l (BioRad), and analyzed by performing SDS-PAGE at 150 V for an hour. Afterward, the resulting gel was dried and exposed onto an X-ray film to measure a degree of phosphorylation. The result is illustrated in FIG. 2. In the upper part of FIG. 2, 20 μM metal ions, Mg, Zn, Cu, Fe, Mn, Ni, Co are used in Lane 1 through Lane 7, respectively. In the lower part of FIG. 2, 200 μM metal ions, Mg, Cu, Zn, Ni, Co, Ca are used in Lane 1 through Lane 7, respectively.
Generally, a protein kinase binds with ATP, hydrolyzes ATP into ADP and attaches a resulting phosphate onto a specific amino acid of the protein to phosphorylate. In this process, Mg^2+ ions play a role of a subsidiary enzyme to stabilize the kinase binding with phosphates of ATP. […] The present inventors have attempted to elucidate why the TRAP protein utilizes the transition metal ions. […] Various oxidative and reductive agents were used to induce a phosphorylation in this Example.
In order to measure the TRAP phosphorylation, a quantitative analysis was performed by using FeSO4, ZnCl2 and CuCl2, in this Example. FeSO4, ZnCl2 and CuCl2, were added to each reaction at various ion concentrations and other conditions of the phosphorylation are the same as that of Example 3. The result is illustrated in FIG. 3.

Chain of TRAP protein (Q6GFM2 whole entry): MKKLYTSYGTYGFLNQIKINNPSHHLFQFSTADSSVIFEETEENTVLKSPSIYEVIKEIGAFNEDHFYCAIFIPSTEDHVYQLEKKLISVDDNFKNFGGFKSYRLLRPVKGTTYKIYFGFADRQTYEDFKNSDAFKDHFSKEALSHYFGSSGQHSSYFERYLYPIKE

SMILES | TRAP phosphorylation induced by oxidative and reductive agents | in vitro phosphorylation of TRAP protein by using metal ions | metal ion concentration above which TRAP protein is maximally phosphorylated | TRAP phosphorylation inhibited by a reducing agent (summary statement)
OO [H2O2, reference compound] | induced |  |  | 
[Cl-].[Cl-].[Mg+2] [Mg^2+, MgCl2] |  | not phosphorylated |  | 
O=S(=O)([O-])[O-].[Fe+2] [FeSO4] |  | in vitro phosphorylated | > 2 µM | 
O=C1O[C@H]([C@@H](O)CO)C(O)=C1O [ascorbic acid, reference compound] | not |  |  | inhibited
[Cl][Cu][Cl] [CuCl2] |  | in vitro phosphorylated | > 20 µM | 
[Cl-].[Cl-].[Zn+2] [ZnCl2] |  | in vitro phosphorylated | > 100 µM | 
